Experimental data from patent publication US20200370015A1, “METHOD FOR PRODUCING ERYTHROID PROGENITOR CELLS” (ETABLISSEMENT FRANCAIS DU SANG, priority 2017, published 2020).

Assays:
Type in all cases: cell-based, human
[1] = test system: CD34+ from cytapheresis; assay: Amplification of erythroid progenitors from CD34+ HSCs derived from cytapheresis (cell count); conditions: cell count after culture
Method: (§1) IMDM (Biochrom), supplemented with transferrin (330 μg/mL), insulin (10 μg/mL), 5% AB serum pool (EFS) and heparin (3 U/mL). From day 0 to day 7, the medium was supplemented with IL-3 (5 ng/mL), SCF (100 ng/mL) and EPO (2 IU/mL). From day 7 until the end of the amplification of erythroblastic progenitors, the medium was supplemented with SCF (100 ng/mL) and EPO (2 IU/mL).
HSCs are obtained after magnetic separation using CD34+ beads according to the protocol provided by Milenyi (see CD34 MicroBead Kit, human, from Miltenyi Biotec).
On day 0 the cells were seeded at a concentration of 10,000 cells/mL, on day 4 the cells were diluted 1/5 in new medium, on day 7 the cells were washed and cultured at 100,000 cells/mL in new medium. On day 11 the cells were diluted to 100,000 cells/mL and seeded in a new medium. On day 14 the cells were reseeded at 300,000 cells/mL in a new medium. On day 18 the cells were diluted to 0.5 million/mL. From day 21 onwards, the cells were systematically returned to 1 million/mL on each maintenance day (i.e., twice per week).
Protocol 1: From day 0 to day 11 the cells are cultured in the basal medium. On day 11 the medium used is supplemented with 253.9 μM DMOG. […]
The cells are diluted to a tenth in trypan blue solution, allowing cell mortality to be assessed if necessary.

[2] = test system: CD34+ HTERT BMI1 LMO2; assay: Amplification of erythroid progenitors from engineered cytapheresis HSCs overexpressing HTERT, BMI1 and LMO2 (cell count); conditions: cell count on day 65
Method: as §1
(§2) HSCs are obtained from cytapheresis after magnetic separation using Miltenyi CD34+ beads.
(§3) On day 0 the cells were seeded at a concentration of 100,000 cells/mL, for two successive infections with the HTERT BMI1 lentiviral supernatant and the BCL-XL retroviral supernatant or the HTERT BMI1 lentiviral supernatant and the LMO2 lentiviral supernatant; on day 3 the cells were washed 3 times and reseeded at a concentration of 10,000 cells/mL, on day 4 the cells were diluted to 1/5 in new medium. On day 7 the cells were washed and cultured at 100,000 cells/mL in new medium. On day 11 the cells were diluted to 100,000 cells/mL and seeded in a new medium. On day 14 the cells were reseeded to 300,000 cells/mL in a new medium. On day 18 the cells were diluted to 0.5 million/mL. From day 21 onwards, the cells were systematically reset to 1 million/mL each day of maintenance (i.e., twice per week).
(§4) Protocol 1: From day 0 to day 11 the cells are cultured in the basal medium. […]

[3] = test system: CD34+ HTERT BMI1 BCL-XL; assay: Amplification of erythroid progenitors from engineered cytapheresis HSCs overexpressing HTERT, BMI1 and BCL-XL (cell count); conditions: cell count on day 65
Method: as §1, §2, §3, §4

SMILES: C[C@@H]1C[C@H]2[C@@H]3CCC4=CC(=O)C=C[C@]4(C)[C@@]3(F)[C@@H](O)C[C@]2(C)[C@@]1(O)C(=O)CO [Protocol 3, dexamethasone]
- amplification of erythroid progenitors/CD34+ from cytapheresis on day 58 [1]: 2.47 · 10^7
- amplification of erythroid progenitors/CD34+ (CD34+ HTERT BMI1 LMO2) [2]: 5.12 · 10^6
- amplification of erythroid progenitors/CD34+ (CD34+ HTERT BMI1 BCL-XL) [3]: 5.76 · 10^5
